The subject of one data set is premature LH-surge. The data set is described as follows: Open-label uncontrolled clinical trial of premature LH-surge prevention in COH with IVF and embryo transfer. In kind it is in vivo, human. To be noted: for prevention of premature LH-rises (above levels of 10 IU/L): day 6 of recombinant FSH treatment until day of hCG treatment. On the procedure:
An open-label, uncontrolled clinical trial is performed to investigate the efficacy, safety, and tolerability of premature LH-surge prevention in 30 female subjects undergoing COH and subsequent IVF and embryo transfer (ET), using a daily oral dosage of 40 mg mifepristone from day 6 of recombinant FSH treatment up to and including the day of hCG treatment and thrice daily intravaginal progesterone supplementation with 200 mg starting immediately after the hCG treatment for a period of up to 12 weeks. Although this treatment is suitable for all types of IVF patients (e.g. within the age range 18 to 45 years, with or without displaying polycystic ovarian syndrome and with or without a regular cycle), the following selection criteria are set forth in the investigation: healthy female partners of infertile couples; age at the time of screening between 20 and 39 years; a body mass index (BMI) between 19 and 29 kg/m^2; a regular menstrual cycle, and willing to give a written informed consent. Prior to the first administration of recombinant FSH a blood sample is taken for hormone analysis (estradiol and LH) and a standard urinary hCG assay is performed to exclude pregnancy. Recombinant FSH treatment is started at day 2 or 3 of menses onwards by a daily subcutaneous injection until the day of hCG administration. During the first 5 days of recombinant FSH treatment the dose is fixed at 150 IU. Starting at day 6, blood samples for hormone analysis are taken every two days prior to drug administration and ultrasonographic monitoring of follicle growth is performed to adjust, if necessary, the daily injectable dose of recombinant FSH. A subcutaneous injection with urinary hCG (5.000 IU) and an intramuscular injection of 50 mg progesterone are administered simultaneously, when at least three follicles exceed a diameter of 17 mm as measured by ultrasound scan and subsequently oocyte retrieval is performed 30-38 hours later. Using the procedure as set forth in example 1, with the proviso that, instead of using a daily dose of 40 mg mifepristone, mifepristone is used at a daily dose of 20 mg, a similar clinical outcome is obtained at a lower anti-P exposure level in the female subjects. […] Using the procedure as set forth in example 1, with the proviso that, instead of using a daily dose of 40 mg mifepristone, mifepristone is used at a daily dose of 10 mg, a similar clinical outcome is obtained at a lower anti-P exposure level in the female subjects.

A further data set has as its system endometrium. The experiment in a line: Controlled clinical study of endometrial receptivity in oocyte donors undergoing COH (glandular dating, pinopodes). In kind it is in vivo, human. To be noted: endometrial biopsy day 7 after hCG injection. As to the method:
An open-label, randomized and controlled clinical study is performed in oocyte donors undergoing COH and in whom premature LH-surges are prevented by either standard GnRH agonist treatment (5 oocyte donors) or mifepristone treatment (5 oocyte donors) with the objective to compare endometrial receptivity. In women treated with 40 mg orally administered mifepristone, the procedure as set forth in example 1 is used, with the proviso that instead of administering progesterone for 12 weeks, daily intravaginal progesterone supplementation with 400 mg is started immediately after the hCG treatment and continued until the day of endometrial biopsy (day 7 after hCG injection in donors). To oocyte donors in the reference group, undergoing COH and receiving GnRH agonist, treatment with GnRH agonist is started in the midluteal phase of the preceding menstrual cycle and given concomitantly with recombinant FSH from day 2 or 3 of the COH cycle up to and including the day of hCG treatment Vaginal progesterone supplementation is started in the GnRH-treated oocyte donors directly after oocyte retrieval (36-38 hours after hCG injection) and continued until the day of endometrial biopsy (day 7 after hCG injection). Endometrial samples are taken from all oocyte donors. […]

For another data set, the system named is folliculogenesis. The conditions noted are these: 50 mg/day tablets from cycle day 2 until hCG injection, with recombinant FSH; cited from earlier work.
For data set [1], the system named is midcycle gonadotropin surge. To be noted: cited from earlier work.
The next data set relates to endogenous LH surge. The data set is described as follows: Clinical investigation: intramuscular progesterone instead of hCG to allow an endogenous LH surge in COH. Type of data set: in vivo, human. On the procedure: An open-label, uncontrolled clinical investigation is performed in 5 healthy female volunteers undergoing COH and subsequent IVF and ET, using the procedure as set forth in example 1, with the proviso that in stead of administering hCG a single intramuscular injection of 50 mg progesterone is administered to allow an endogenous LH surge to occur, inducing resumption of meiosis and luteinisation.

The next data set has as its system uterine contractility. To be noted: vaginal administration starting on the day of oocyte retrieval, compared with preovulatory values; cited from earlier work.

The source of these data is patent publication US20060217315A1, “Method of controlled ovarian hyperstimulation and pharmaceutical kit for use in such method” (priority 2001, published 2006).

As to `CC#C[C@]1(O)CC[C@H]2[C@@H]3CCC4=CC(=O)CCC4=C3[C@@H](c3ccc(N(C)C)cc3)C[C@@]21C` [mifepristone], in the data set on premature LH-surge (10 mg daily oral), the “tolerability and adverse effects” value is “well tolerated and shows no adverse effects”; the “prevention of premature LH-rises (above levels of 10 IU/L)” value (from here on “prevention of premature LH-rises”) is on record as “efficacious in preventing premature LH-rises”. Besides, in the data set on premature LH-surge (20 mg daily oral), the “tolerability and adverse effects” value was “well tolerated and shows no adverse effects”; the “prevention of premature LH-rises” value is on record as “efficacious in preventing premature LH-rises”. Also, in the data set on premature LH-surge (40 mg daily oral), the “tolerability and adverse effects” value was “well tolerated and shows no adverse effects”; the “prevention of premature LH-rises” value is listed as “efficacious in preventing premature LH-rises”. Also, the endometrial glandular dating result in the data set with endometrium (hematoxylin and eosin staining) was “typically in-phase glandular dating is observed”. Besides, the presence of pinopodes entry with endometrium (scanning electron microscopy) is listed as “pinopodes are readily visible”. Moreover, in the data set on folliculogenesis, the “effect on follicular development” value is recorded as “arrests follicular development by delaying the growth of the dominant follicle” and the “occurrence of LH-surges prior to hCG injection” value is “may prevent the occurrence of LH-surges”. In data set [1] (1 mg/day for 5 or 15 days, starting when dominant follicle reached 14-16 mm), the “timing of the midcycle gonadotropin surge and collapse of the dominant follicle” value was “consistently delayed”. In addition, the “emergence of periovulatory progesterone rise” value in data set [1] (1 mg/day for 5 or 15 days) was “delayed the emergence of periovulatory progesterone rise”.
Consider `CC(=O)[C@H]1CC[C@H]2[C@@H]3CCC4=CC(=O)CC[C@]4(C)[C@H]3CC[C@]12C` [progesterone], for which the “oocyte quality at harvest” value with endogenous LH surge (harvested at 36-3836 hours after starting progesterone treatment) was “retrieval of good quality oocytes”. The “occurrence of endogenous LH-surges” value with endogenous LH surge (single intramuscular injection of 50 mg, after 40 mg mifepristone COH procedure) is reported as “efficacious in allowing endogenous LH-surges to occur”. Moreover, the “LH and FSH surges when added to RU486” value in data set [1] (5-10 mg/day, im, for 2 days, added to a 5-day course of RU486) is “readily induced LH and FSH surges and completely reversed the effects of RU486 at midcycle”. Also, the “uterine contraction frequency on the day of embryo transfer” value with uterine contractility is on record as “induced a decrease in uterine contraction frequency”.
